In patent US20260053790A1, “TREATMENTS FOR CONDITIONS INVOLVING INCREASED IL-6 LEVELS” (X4 Pharmaceuticals, Inc., priority 2022, published 2026):

Legend:
[1] = test system: WM cells; assay: Soluble IL-6 treatment of WM cells in the absence of BMSC: CXCR4 expression and IgM secretion; assay type: cell-based; settings: blockade of IL-6/IL6R/STAT3 axis, FIG. 3
Source text: FIG. 3: Even in the Absence of BMSC, Soluble IL-6 Upregulates CXCR4 Expression & IgM Secretion in WM Cells; which is Prevented by Blockade of IL-6/IL6R/STAT3 Axis. BP-1-102 is a STAT3 inhibitor.

[2] = Solubility of mavorixafor by pH and in water; assay type: physicochemical
Method: Mavorixafor (formerly designated X4P-001 and AMD11070) is a CXCR4 antagonist, with molecular formula C21H27N5; molecular weight 349.48 amu; and appearance as a white to pale yellow solid. Solubility: freely soluble in the pH range 3.0 to 8.0 (>100 mg/mL), sparingly soluble at pH 9.0 (10.7 mg/mL) and slightly soluble at pH 10.0 (2.0 mg/mL). […] Melting point: 108.9° C.

[3] = test system: WM cells; assay: Co-culture of BMSC with WM cells: BM stroma-induced IgM hypersecretion; assay type: cell-based; settings: FIG. 2
[4] = in vivo; settings: Terminal half-life
Method: In certain embodiments, the dosage composition may be provided twice a day in divided dosage, approximately 12 hours apart. In other embodiments, the dosage composition may be provided once daily. […] Dosage for oral administration may be from about 100 mg to about 1200 mg once or twice per day.

[5] = test system: IL-6; assay: IL-6 overexpression and hypersecretion (co-culture of BMSC with WM cells); assay type: cell-based; settings: mavorixafor as a single agent

Row | solubility ([2]; aqueous buffer, pH range 3.0 to 8.0 (freely soluble)) [mg/mL] | Solubility in water ([2]; water) | half-life [4] [h] | Compound | Soluble IL-6-induced upregulation of CXCR4 expression in WM cells [1] | Soluble IL-6-induced upregulation of IgM secretion in WM cells [1] | Bone marrow stroma-induced IgM hypersecretion in WM cells [3] | Overexpression and hypersecretion of IL-6 [5]
1 |  |  |  | CN(CC(=O)N(Cc1ccc(C2CCCCC2)cc1)c1ccc(C(=O)O)c(O)c1)S(=O)(=O)c1c(F)c(F)c(F)c(F)c1F [BP-1-102] | Prevented | Prevented |  | 
2 | > 100 | only slightly soluble | 12 to 24 | NCCCCN(Cc1nc2ccccc2[nH]1)[C@H]1CCCc2cccnc21 [Mavorixafor, mavorixafor] |  |  | blocks | significantly reduces
